Among the data in patent US8114888B2, “Isothiazoloquinolones and related compounds as anti-infective agents” (Achillion Pharmaceuticals, Inc., priority 2005, dated 2012) are melting point and CC50 values, retold here.

Data set [1] is described as follows: Cell viability staining with Alamar Blue (compound cytotoxicity). In kind it is cell-based. Conditions: positive control with known CC50. On the procedure: To determine whether the microcidal effect observed against S. aureus and E. coli is specific to bacterial cells, compounds are screened for cell viability effects on several human cell types.
Optimal cell density is first determined by plating cells in a 96-well plate standard sterile tissue culture plates in 100 μl media, 10% FBS at six cell densities from 500 cells/well to 15,000 cells/well. A cell free well containing only media is used as a control. Cells are incubated at 37° C. in a 5% CO2 incubator for 24 hours. 10% culture volume (10 ul) of Alamar Blue (Biosource, DAL1100, 100 mL) is then added. Cells are incubated at 37° C. in a 5% CO2 incubator and read in a Victor V plate reader, 544 nm excitation, 590 nm emission, at 3, 4, and 24 hours after the addition of Alamar Blue. The cell number vs. change in fluorescence is plotted to determine linearity of signal vs. cell number. The optimal density varies between 500-15,000 cells/well depending on the specific cell type. […]
Cells are plated at optimal cell density in a standard sterile tissue culture 96 well plate, and incubated at 37° C. […] Plates are incubated 4 hours at 37° C. in a 5% CO2 incubator and read in a Victor V plate reader, 544 nm excitation, 590 nm emission. […]
The change in fluorescence vs. concentration of test compound is plotted to determine the cytotoxicity of the compound. […]
A general note: Resazurin is reduced to fluorescent resorufin, in cell work by metabolically active cells.

In general, melting point refers to the temperature, or range, at which the solid turns liquid. What is called CC50 is the concentration at which the toxic effect on the cells reaches its halfway point. A higher CC50 goes with better tolerance by the cells.

As to `NC1CCc2cc(-c3cc4c(cc3F)c(=O)c3c(=O)[nH]sc3n4C3CC3)ccc2C1` (racemic) [Compound 31, (rac)-7-(6-Amino-5,6,7,8-tetrahydronaphthalen-2-yl)-9-cyclopropyl-6-fluoro-9H-isothiazolo[5,4-b]quinoline-3,4-dione], the melting point was > 257 °C (dec.). Consider `CC(C)(C)c1ccc(C(O)CCCN2CCC(C(O)(c3ccccc3)c3ccccc3)CC2)cc1` (stereo not shown) [Terfenadine], for which the CC50 in data set [1] (Chinese hamster, CHO cells (Chinese hamster ovary)) fell in the range of 4.3 to 6.5 µM; in data set [1] (human, Hep 2 cells (laryngeal carcinoma)), 3 to 5 µM. As for `O=c1[nH]sc2c1c(=O)c1cc(F)c(C3=CCNCC3)cc1n2C1CC1`, the melting point is > 241 °C (dec.).
